Results on one compound are retold here after paper PMC6720883, “In Vitro Inhibitory Effects of APINACA on Human Major Cytochrome P450, UDP-Glucuronosyltransferase Enzymes, and Drug Transporters” (Molecules, 2019).

For orientation: IC50 means the concentration that inhibits the measured activity by half. As a reminder, the kinact is the maximal first-order rate at which the target is inactivated.

Where two headings read alike, the source gives them in different places. A value given as a limit tells only on which side of the number the result lay.

Data set [1] concerns the target CYP1A2 (Homo sapiens, UniProt P05177). Briefly: Inhibition of CYP1A2-mediated phenacetin O-deethylase in ultrapooled human liver microsomes (cocktail, LC-MS/MS). The format is in vitro ADME. On the procedure:
(§1) The inhibitory potentials (IC50 values) of APINACA and typical CYP inhibitors on CYP 1A2, 2A6, 2C8, 2C9, 2C19, 2D6, and 3A4 activities in pooled human liver microsomes were evaluated following our previous method using a cocktail of CYP substrates, followed by LC–MS/MS [43]. […] After 3 min of preincubation at 37 °C, the reaction mixtures were incubated for 15 min at 37 °C with the addition of NADPH in a shaking water bath. The reaction was stopped by adding 100 μL of ice cold methanol containing internal standards (d9-1′-hydroxybufuralol for 1′-hydroxybufuralol, 4′-hydroxydiclofenac, 7-hydroxycoumarin, 1′-hydroxymidazolam, and 4′-hydroxymephenytoin; ^13C2, ^15N-acetaminophen for acetaminophen and N-desethylamodiaquine). The incubation mixtures were centrifuged at 13,000× g for 8 min at 4 °C, and 50 μL of each supernatant was diluted with 50 μL of water. Aliquots (5 μL) of the diluted supernatants were analyzed by LC–MS/MS. All assays were performed in triplicate, and the average values were used for subsequent calculations.
(§2) To measure the time-dependent inhibition, human liver microsomes were preincubated with the various concentrations of APINACA (final concentrations of 0.1−100 μM) and NADPH for 30 min at 37 °C. Next, the reaction mixtures were incubated with a seven-CYP probe substrate cocktail or bupropion for 15 min at 37 °C. […]
For orientation: Liver microsomes are a subcellular fraction often used to study metabolism.

In data set [2] the target is CYP2A6 (Homo sapiens, UniProt P11509). Briefly: Inhibition of CYP2A6-mediated coumarin 7-hydroxylase in ultrapooled human liver microsomes. The format is in vitro ADME. On the procedure: as §1, §2
Data set [3] addresses CYP2D6 (Homo sapiens, UniProt P10635). Briefly: Inhibition of CYP2D6-mediated bufuralol 1′-hydroxylase in ultrapooled human liver microsomes. It is filed as in vitro ADME. The procedure: as §1, §2
For data set [4], the target named is CYP3A4 (Homo sapiens, UniProt P08684). The experiment in a line: Time-dependent inhibition kinetics of CYP3A4 midazolam 1′-hydroxylation in human liver microsomes. The format is in vitro ADME. The procedure:
The kinetic parameters for the time-dependent inhibition potency of APINACA against human liver microsomal CYP3A4 activity were evaluated. Ultrapooled human liver microsomes (1 mg/mL) were preincubated with various concentrations of APINACA (final concentrations of 1–40 μM) in 50 mM potassium phosphate buffer (pH 7.4) in the presence of NADPH. Aliquots (10 μL) of the preincubated mixtures were withdrawn 5, 10, 20, and 30 min after incubation was commenced and were added to other tubes containing 2 μM midazolam, 1 mM NADPH, 50 mM potassium phosphate buffer (pH 7.4), and 10 mM MgCl2 in 90-μL reaction mixtures. The second reactions were terminated after 10 min by adding 100 μL of ice cold methanol containing d9-1′-hydroxybufuralol. […] Aliquots (5 μL) of the diluted supernatants were analyzed by LC–MS/MS.
(§3) 12.5 (Systat Software, Inc.; San Jose, CA, USA). […] 1.1 (Systat Software, Inc.).

The target of data set [5] is T1, OCT1 (Homo sapiens, UniProt O15245).
T1 construct: host or cells: HEK293 (transient overexpression)
T1 sequence (O15245 1-554): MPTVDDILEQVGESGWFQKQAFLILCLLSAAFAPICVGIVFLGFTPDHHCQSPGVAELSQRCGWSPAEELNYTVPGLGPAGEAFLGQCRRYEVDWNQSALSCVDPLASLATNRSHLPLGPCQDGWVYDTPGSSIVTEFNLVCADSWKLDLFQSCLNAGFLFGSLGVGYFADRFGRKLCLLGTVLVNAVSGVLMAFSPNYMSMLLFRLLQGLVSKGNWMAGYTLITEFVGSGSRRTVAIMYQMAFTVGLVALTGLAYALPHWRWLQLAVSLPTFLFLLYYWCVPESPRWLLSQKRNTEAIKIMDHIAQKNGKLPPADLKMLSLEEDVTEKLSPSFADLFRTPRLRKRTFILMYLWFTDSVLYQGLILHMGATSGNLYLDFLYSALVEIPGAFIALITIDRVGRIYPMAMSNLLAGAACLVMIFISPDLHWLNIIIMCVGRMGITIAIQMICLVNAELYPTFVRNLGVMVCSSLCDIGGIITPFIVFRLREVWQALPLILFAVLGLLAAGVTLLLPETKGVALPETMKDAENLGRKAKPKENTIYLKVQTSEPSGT
The experiment in a line: Uptake of [3-H]methyl-4-phenylpyridinium in HEK293-OCT1 cells. The format is in vitro ADME. On the procedure: To examine the effects of APINACA and typical inhibitors on transporter activity, the uptake of a probe substrate into HEK293 cells overexpressing the respective solute carrier transporters was measured in the presence of APINACA (final concentrations of 0–250 μM) or typical inhibitors for 5 min. The concentrations and probe substrates were selected as follows: 0.1 μM [3-H]MPP^+ (for OCT1 and OCT2), 0.1 μM [3-H]PAH (for OAT1), 0.1 μM [3-H]ES (for OAT3 and OATP1B1), and 0.1 μM [3-H]EG (for OATP1B3).
as §3

Data set [6] concerns the target T2, OAT3 (Homo sapiens, UniProt Q8TCC7).
T2 construct: host or cells: HEK293 (transient overexpression)
T2 sequence (Q8TCC7 1-542): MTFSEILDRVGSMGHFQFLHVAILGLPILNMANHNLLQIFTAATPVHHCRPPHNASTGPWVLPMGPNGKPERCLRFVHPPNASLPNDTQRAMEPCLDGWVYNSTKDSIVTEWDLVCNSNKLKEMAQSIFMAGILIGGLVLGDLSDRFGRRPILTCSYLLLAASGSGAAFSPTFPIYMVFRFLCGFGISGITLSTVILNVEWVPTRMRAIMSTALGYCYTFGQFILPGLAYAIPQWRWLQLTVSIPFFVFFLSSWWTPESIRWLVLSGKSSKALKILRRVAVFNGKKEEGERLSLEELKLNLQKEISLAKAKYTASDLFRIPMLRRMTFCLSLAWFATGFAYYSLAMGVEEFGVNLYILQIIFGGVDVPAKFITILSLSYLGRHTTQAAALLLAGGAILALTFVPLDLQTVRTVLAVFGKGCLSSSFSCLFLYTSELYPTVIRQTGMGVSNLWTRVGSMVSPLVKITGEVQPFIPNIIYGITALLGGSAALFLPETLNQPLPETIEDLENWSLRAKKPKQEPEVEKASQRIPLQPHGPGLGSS
The experiment in a line: Uptake of [3-H]estrone-3-sulfate in HEK293-OAT3 cells. The format is in vitro ADME. The procedure:
The concentrations and probe substrates were selected as follows: 0.1 μM [3-H]MPP^+ (for OCT1 and OCT2), 0.1 μM [3-H]PAH (for OAT1), 0.1 μM [3-H]ES (for OAT3 and OATP1B1), and 0.1 μM [3-H]EG (for OATP1B3).
1.1 (Systat Software, Inc.).

The conditions of data set [7]: blood samples of three driving under the influence of drugs cases; cited from earlier work.

Chain of CYP1A2 (P05177 whole entry): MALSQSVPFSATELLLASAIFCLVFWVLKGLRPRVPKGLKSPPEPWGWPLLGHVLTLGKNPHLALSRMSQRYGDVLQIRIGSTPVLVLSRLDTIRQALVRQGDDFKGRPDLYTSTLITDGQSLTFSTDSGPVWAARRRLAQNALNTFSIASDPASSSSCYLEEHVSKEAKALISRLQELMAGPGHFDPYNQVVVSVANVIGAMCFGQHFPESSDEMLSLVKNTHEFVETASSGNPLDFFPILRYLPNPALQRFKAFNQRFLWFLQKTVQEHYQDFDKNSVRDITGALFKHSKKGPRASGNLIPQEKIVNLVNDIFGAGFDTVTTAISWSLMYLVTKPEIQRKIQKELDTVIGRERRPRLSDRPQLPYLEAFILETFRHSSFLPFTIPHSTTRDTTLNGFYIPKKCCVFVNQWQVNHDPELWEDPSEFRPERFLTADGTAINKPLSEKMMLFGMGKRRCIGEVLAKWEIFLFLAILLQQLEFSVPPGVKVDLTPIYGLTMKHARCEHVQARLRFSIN
Chain of CYP3A4 (P08684 2-503): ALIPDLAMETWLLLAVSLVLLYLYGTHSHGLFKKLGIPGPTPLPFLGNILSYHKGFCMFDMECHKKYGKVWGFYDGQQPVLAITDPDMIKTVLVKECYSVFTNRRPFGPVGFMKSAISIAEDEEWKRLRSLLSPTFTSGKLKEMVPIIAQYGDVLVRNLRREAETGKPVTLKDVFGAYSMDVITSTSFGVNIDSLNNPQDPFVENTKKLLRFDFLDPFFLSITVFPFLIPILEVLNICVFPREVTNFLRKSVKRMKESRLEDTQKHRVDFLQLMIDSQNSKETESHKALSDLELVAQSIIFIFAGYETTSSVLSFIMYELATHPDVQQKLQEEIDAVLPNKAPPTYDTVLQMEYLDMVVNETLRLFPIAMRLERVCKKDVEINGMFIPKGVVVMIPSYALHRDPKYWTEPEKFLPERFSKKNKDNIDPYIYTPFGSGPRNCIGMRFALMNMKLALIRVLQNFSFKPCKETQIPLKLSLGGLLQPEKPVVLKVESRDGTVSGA
Chain of CYP2D6 (P10635 whole entry): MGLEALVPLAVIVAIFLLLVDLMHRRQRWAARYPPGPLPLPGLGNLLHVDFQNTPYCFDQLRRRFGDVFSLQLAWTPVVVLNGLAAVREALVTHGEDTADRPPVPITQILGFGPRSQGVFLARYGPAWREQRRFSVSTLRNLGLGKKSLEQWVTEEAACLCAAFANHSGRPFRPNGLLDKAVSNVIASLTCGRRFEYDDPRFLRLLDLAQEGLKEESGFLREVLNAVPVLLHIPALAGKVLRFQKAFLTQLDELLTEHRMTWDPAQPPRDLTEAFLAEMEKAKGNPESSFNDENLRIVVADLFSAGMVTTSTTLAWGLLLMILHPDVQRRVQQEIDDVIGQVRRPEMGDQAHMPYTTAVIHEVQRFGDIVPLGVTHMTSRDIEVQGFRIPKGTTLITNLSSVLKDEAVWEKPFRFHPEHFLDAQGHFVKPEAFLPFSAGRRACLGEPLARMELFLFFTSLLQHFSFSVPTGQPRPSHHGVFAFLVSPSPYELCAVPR
Chain of CYP2A6 (P11509 whole entry): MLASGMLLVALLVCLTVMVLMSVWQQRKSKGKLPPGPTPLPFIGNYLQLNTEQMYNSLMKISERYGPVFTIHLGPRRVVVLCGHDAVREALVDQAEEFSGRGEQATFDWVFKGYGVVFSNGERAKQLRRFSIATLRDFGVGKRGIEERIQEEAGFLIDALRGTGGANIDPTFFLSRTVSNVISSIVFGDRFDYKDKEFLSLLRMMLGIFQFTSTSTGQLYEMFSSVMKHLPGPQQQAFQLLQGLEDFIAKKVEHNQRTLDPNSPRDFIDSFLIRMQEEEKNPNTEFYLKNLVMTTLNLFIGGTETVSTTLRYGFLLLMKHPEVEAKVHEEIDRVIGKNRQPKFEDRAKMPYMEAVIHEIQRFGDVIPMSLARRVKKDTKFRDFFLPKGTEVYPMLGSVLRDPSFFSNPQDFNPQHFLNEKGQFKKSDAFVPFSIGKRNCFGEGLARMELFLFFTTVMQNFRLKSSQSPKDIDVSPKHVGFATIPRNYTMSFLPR

As for `CCCCCn1nc(C(=O)NC23CC4CC(CC(C4)C2)C3)c2ccccc21` [APINACA, N-(1-adamantyl)-1-pentyl-1H-indazole-3-carboxamide], the IC50 in data set [1] is over 100 µM; in data set [1] (read-out: IC50 (μM) With Preincubation, CYP1A2 phenacetin O-deethylase, ultrapooled human liver microsomes, 30-min preincubation with NADPH), over 100 µM; in data set [2], over 100 µM; in data set [2] (read-out: IC50 (μM) With Preincubation, CYP2A6 coumarin 7-hydroxylase, ultrapooled human liver microsomes, 30-min preincubation with NADPH) it was over 100 µM; in data set [3], over 100 µM; in data set [3] (read-out: IC50 (μM) With Preincubation, CYP2D6 bufuralol 1′-hydroxylase, ultrapooled human liver microsomes, 30-min preincubation with NADPH) it was over 100 µM. Moreover, the half-maximal inhibitory concentration (IC50) in data set [5] and in data set [6] was over 250 µM in each case. The “inactivation efficiency (kinact/Ki) for time-dependent inhibition of CYP3A4” value in data set [4] (human liver microsomes) amounted to 173 M⁻¹ s⁻¹. Also, the kinact in data set [4] (pH 7.4, probe midazolam 2 μM (1′-hydroxylation), ultrapooled human liver microsomes, time-dependent inhibition, read-out: kinact for time-dependent inhibition of CYP3A4-catalyzed midazolam 1′-hydroxylase (converted)) is 0.000781 s⁻¹. In data set [7], the blood concentrations is 0.66 to 67.1 nM.
